Assay results from patent US20140301961A1, “COMPOUNDS WITH ANTI-AGING ACTIVITIES” (priority 2011, published 2014).

Experiments:
[1] = test system: Kallikrein 8; assay: Kallikrein 8 ELISA in human normal keratinocytes; type: cell-based; conditions: 4 days stimulation (FIG. 14)
Experimental: Keratinocytes were cultured in commercially available keratinocyte medium M154 (Cascade Biologics/Invitrogen) # M154500 with a final calcium […]. Supplements were added meeting following final concentrations of growth factors; bovine pituitary extract (BPE), 0.2% v/v·bovine insulin, 5 μg/ml·hydrocortisone, 0.18 μg/ml·bovine transferrin, 5 μg/ml·human epidermal growth factor, 0.2 ng/ml.
Keratinocytes used for Kallikrein 8 experiments were cultured as described in example 2.1. Experiments were performed in monolayers with 80% confluence. The cells were stimulated for 4 days prior to kallikrein 8 analysis with the different actives and then culture supernatant were collected and stored in −20° C. until further analysis. Kallikrein 8 production was analysed in cell culture supernatants from stimulated keratinocytes using a ELISA assay specific for Kallikrein 8 (Uscn Life Science Inc, E90690Hu). Results were compared with cell culture supernatants from DMSO vehicle treated cells. The assays utilized a 96-well microplate format and were processed according to the manufacturer's protocol, including generation of a standard curve prepared in background assay diluents. Absorbance of the assay dye was read at a Synergy HT plate reader. Values that fell within the linear range of the calibration assay were accepted. Quantities were determined by comparison to standard curves obtained for KLK8.

[2] = test system: Plasminogen activator (PLAT); assay: Plasminogen activator (PLAT) activation
[3] = test system: MMP-1, MMP-2, MMP-3, MMP-8, MMP-9; assay: UV-induced MMP production in human skin explants; type: cell-based; conditions: 1% in propylene glycol (FIG. 2)
Experimental: MMP inhibition activity for compound of the invention was tested on human skin explants. Skin explants were sourced from 2 healthy caucasian female breast skin donor […]. A cream containing all-trans retinoic acid (tretinoin) (0.05%) was added topically using positive displacement pipette (5 ul/cm^2) to each explants. A similar cream base without tretinoin was used as placebo control. […] Solutions were kept under nitrogen and used immediately after preparation. Propylene glycol was used as vehicle control for the compounds of the invention in this study. Fluorokine MultiAnalyte Profiling (xMAP) using the BioPlex (ex. Biorad) dual laser flow-based sorting and detection analyzers manufactured by Luminex corporation (Luminex, Austin, Tex.) was employed to measure levels of MMP in conditioned media samples of stimulated dermal fibroblasts. The technology incorporated polystyrene microspheres dyed internally with differing ratios of two spectrally distinct fluorophores to create a family of different spectrally addressed bead sets. […] Samples were analyzed using the Bio-Plex suspension array system and Bio-Plex Manager software 4.0 (Bio-Rad Laboratories, Hercules, Calif.). Quantities were determined by comparison to standard curves obtained for the different MMP.

[4] = test system: human reconstructed epidermis (SkinEthic model); assay: In vitro skin irritation, OECD guideline 439; type: cell-based; conditions: pure compound, cytotoxicity assay on reconstructed epidermis
Experimental: The studies, aimed at evaluating the capability of the test compound to induce skin irritation effects by a cytotoxicity assay on in vitro human reconstructed epidermis (SkinEthic), were carried out according to the ECVAM protocol of Apr. 27, 2007, the B46 method of the official journal of the European union, dated Aug. 14, 2009 and the OECD guideline 439.

[5] = test system: heparin-binding EGF-like growth factor (HBEGF); assay: Affymetrix gene array on skin explants, HBEGF; type: cell-based, human; conditions: topical, 24 hours, cut-off |log 2−ratio|>1
Text: (§1) Subcutaneous fat from full thickness skin, obtained from surgical waste material from breast reduction procedures, was removed with a scalpel. Three healthy Caucasian female donors were used for this study. The female donors differed from those of the skin-treatment study outlined previously 8 mm punch biopsies were taken from the skin (and these biopsies are now referred to as skin explants). Skin explants were put on Milipore cell culture inserts (12 mm diameter). Inserts containing skin explants were put in 6-well plates (one insert/well) and 1 mL of supplemented keratinocyte medium (ex Cascade Biologics) was added to each well. A tretinoin-containing cream (Aberela® ex. Janssen): 0.05% tretinoin in the cream, was applied topically to each explant (5 μL/cm^2) using a positive displacement pipette. A placebo cream without tretinoin was used as a control. The skin explants were incubated with tretinoin for 24 hours at 37° C. in 5% CO2-humidified air.
(§2) RNA concentration was measured with ND-1000 spectrophotometer (ex. NanoDrop Technologies) and RNA quality was evaluated using the Agilent 2100 bioanalyzer system (ex. Agilent Technologies). 250 nanograms of total RNA from each skin or skin explant sample was used to prepare biotinylated fragmented cRNA according to the GeneChip® 3′IVT Express Kit Manual (PN702646 Rev 1, ex. Affymetrix Inc.). Affymetrix GeneChip® expression arrays (Human Genome U133 Plus 2.0) were hybridized for 16 hours in a 45° C. incubator, rotated at 60 rpm. According to the GeneChip Expression Wash, Stain and Scan Manual (PN 702731 Rev 2, ex. Affymetrix Inc.) the arrays were washed and stained using the Fluidics Station 450 and scanned using the GeneChip® Scanner 3000 7G.
Analysis of the gene expression data was carried out in the statistical computing language R (http://www.r-project.org) using packages available from the Bioconductor project (www.bioconductor.org). The raw data was normalized using the robust multi-array average (RMA) method. […]

[6] = In vitro skin permeation, static Franz diffusion cells; type: in vitro ADME; conditions: 0.5% w/w in a basic formulation, topical, 24 hours, pig skin (FIG. 1)
Text: The in vitro skin permeation experiments were developed and validated according to the Organization for Economic Co-Operation and Development adopted guideline 428 (OECD guideline for the testing of chemicals. Skin absorption: in vitro method. Guideline 428 (Paris, April 2004, updated January 2011)).
For this investigation, static Franz glass diffusion cells (Permegear, USA) were used. These cells consist of donor and receptor chambers in between which a piece of porcine skin was positioned (thickness 800 μm). About 20 mg/cm^2 of each formulation were applied on the skin surface through the donor compartment in triplicate for each formulation. The pig skin samples were equilibrated for 30 minutes, and air bubbles were removed. The cells were kept at constant temperature with a circulating water flow at 37° C. and the receptor compartment content (ethanol/water 50:50) was continuously agitated by magnetic stirrers.
After an exposure time of 24 hours, the diffusion cells were dismounted and each active was analysed in each compartment. • the non absorbable dose: the skin surface was washed with 10.0 ml of methanol and one tape-strip was made in order to remove the residual donor samples. • the potentially absorbable dose: the tape stripping procedure was used in order to separate the stratum corneum from the skin sample. […]

[7] = test system: connective tissue growth factor (CTGF); assay: Affymetrix gene array on skin explants, CTGF; type: cell-based, human; conditions: topical, 24 hours, cut-off |log 2−ratio|>1
Text: as §1, §2
Analysis of the gene expression data was carried out in the statistical computing language R (http://www.r-project.org) using packages available from the Bioconductor project (www.bioconductor.org). The raw data was normalized using the robust multi-array average (RMA) method. In order to search for differentially expressed genes between the X samples and the Y samples group an empirical Bayes moderated t-test was then applied using the ‘limma’ package.
Skin explants were obtained as detailed in Example 3.1. Compounds naringenin and N-acetyl aspartic acid were topically applied on skin explants for 24 hours and investigated with Affymetrix gene array.

[8] = test system: keratin 6; assay: Keratin-6 production in normal human keratinocytes; type: cell-based; conditions: normal human keratinocytes (FIG. 11)

## C=C1C[C@]23C[C@@]1(O)CC[C@H]2[C@@]12C=C[C@H](O)[C@@](C)(C(=O)O1)[C@@H]2[C@@H]3C(=O)O [Gibberellic acid, (3S,3aS,4S,4aS,7S,9aR,9bR,12S)-7,12-dihydroxy-3-methyl-6-methylene-2-oxoperhydro-4a,7-methano-9b,3-propenoazuleno[1,2-b]furan-4-carboxylic acid]
[1]
  synthesis of kallikrein 8: significant increase in the synthesis of kallikrein 8
[2]
  Plasminogen activator (PLAT) activation: activated
[3]
  inhibition of UV-induced MMP-1, MMP-2, MMP-3, MMP-8, MMP-9 production: inhibition

## CC(=O)N[C@@H](CC(=O)O)C(=O)O [N-Acetyl aspartic acid, (2S)-2-Acetamidobutanedioic acid]
[1]
  synthesis of kallikrein 8: significant increase in the synthesis of kallikrein 8
[4]
  skin irritation: non-irritating to skin
[2]
  Plasminogen activator (PLAT) activation: activated
[5]
  HBEGF gene expression: No
[6]
  penetration into the skin: penetration of each active into the skin
[3]
  inhibition of UV-induced MMP-1, MMP-2, MMP-3, MMP-8, MMP-9 production: inhibition
[7]
  CTGF gene expression: 1.03 log 2−ratio

## O=C1C[C@@H](c2ccc(O)cc2)Oc2cc(O)cc(O)c21 [Naringenin, (S)-2,3-Dihydro-5,7-dihydroxy-2-(4-hydroxyphenyl)-4H-1-benzopyran-4-one]
[1]
  synthesis of kallikrein 8: significant increase in the synthesis of kallikrein 8
[4]
  skin irritation: non-irritating to skin
[5]
  HBEGF gene expression: 1.19 log 2−ratio
[6]
  penetration into the skin: penetration of each active into the skin
[8]
  keratin-6 production: stimulated keratin-6 production
[7]
  CTGF gene expression: 1.05 log 2−ratio
